Assay results published in patent publication US20150376172A1, “FLUORO-[1,3]OXAZINES AS BACE1 INHIBITORS” (HOFFMANN-LA ROCHE INC., priority 2013, published 2015).

What follows are compounds tested against T1, BACE1 (Homo sapiens, UniProt P56817) (assay: Cellular Aβ-lowering assay (Abeta 40 AlphaLISA)). Details: HEK293 APP cells; 18-20 hrs incubation; Aβ 40 in culture supernatants by AlphaLISA; read-out: BACE1 cell act. Aβ40 IC50.
T1 construct: endogenous in cells; host or cells: HEK293 APP cells
T1 sequence (P56817 46-501): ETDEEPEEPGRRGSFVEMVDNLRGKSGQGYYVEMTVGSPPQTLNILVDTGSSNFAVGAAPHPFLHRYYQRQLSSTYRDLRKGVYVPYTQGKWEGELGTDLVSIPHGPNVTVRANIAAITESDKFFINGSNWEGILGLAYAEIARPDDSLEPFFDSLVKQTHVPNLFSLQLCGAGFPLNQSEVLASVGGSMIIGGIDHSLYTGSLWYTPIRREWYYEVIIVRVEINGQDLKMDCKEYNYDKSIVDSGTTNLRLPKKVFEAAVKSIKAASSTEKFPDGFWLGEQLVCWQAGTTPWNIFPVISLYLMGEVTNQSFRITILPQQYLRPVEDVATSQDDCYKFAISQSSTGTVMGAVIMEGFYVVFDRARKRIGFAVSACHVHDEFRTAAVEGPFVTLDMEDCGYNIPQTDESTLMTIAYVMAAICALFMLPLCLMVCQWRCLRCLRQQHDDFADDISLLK
Format: cell-based
Method: Cellular Aβ-lowering assay:
The Abeta 40 AlphaLISA Assay can be used. The HEK293 APP cells were seeded in 96 well Microtiter plates in cell culture medium (Iscove's, plus 10% (v/v) fetal bovine serum, penicillin/streptomycin) to about 80% confluency and the compounds were added at a 3× concentration in ⅓ volume of culture medium (final DMSO concentration was kept at 1% v/v). After 18-20 hrs incubation at 37° C. and 5% CO2 in a humidified incubator, the culture supernatants were harvested for the determination of Aβ 40 concentrations using Perkin-Elmer Human Amyloid beta 1-40 (high specificity) Kit (Cat#AL275C).
In a Perkin-Elmer White Optiplate-384 (Cat#6007290), 2 ul culture supernatants were combined with 2 μl of a 10× AlphaLISA Anti-hAβAcceptor beads+Biotinylated Antibody Anti-Aβ1-40 Mix (50 μg/mL/5 nM). After 1 hour room temperature incubation, 16 μl of a 1.25× preparation of Streptavidin (SA) Donor beads (25 μg/mL) were added and incubated for 30 minutes in the Dark. Light Emission at 615 nm was then recorded using EnVision-Alpha Reader. Levels of Aβ 40 in the culture supernatants were calculated as percentage of maximum signal (cells treated with 1% DMSO without inhibitor). The IC50 values were calculated using the Excel XLfit software.
For `C[C@@]1(c2cc(-c3cncc(C#N)c3)ccc2F)C[C@@H](C(F)(F)F)OC(N)=N1` [Example 12, 5-(3-((4S,6S)-2-Amino-4-methyl-6-(trifluoromethyl)-5,6-dihydro-4H-1,3-oxazin-4-yl)-4-fluorophenyl)nicotinonitrile], the IC50 was 900 nM. Work on `COc1cc(C#N)cnc1C#Cc1ccc(F)c([C@]2(CF)C[C@@H](C(F)(F)F)OC(N)=N2)c1` [Example 57, 6-((3-((4S,6S)-2-Amino-4-(fluoromethyl)-6-(trifluoromethyl)-5,6-dihydro-4H-1,3-oxazin-4-yl)-4-fluorophenyl)ethynyl)-5-methoxynicotinonitrile] yielded an IC50 of 520 nM. For `C[C@@]1(c2cc(-c3nc4ccc(Cl)cc4o3)ccc2F)C[C@@H](C(F)(F)F)OC(N)=N1` [Example 39, (4S,6S)-4-(5-(6-Chlorobenzo[d]oxazol-2-yl)-2-fluorophenyl)-4-methyl-6-(trifluoromethyl)-5,6-dihydro-4H-1,3-oxazin-2-amine], the IC50 was 530 nM. `C[C@@]1(c2cc(-c3cn(-c4ccc(C#N)cn4)nn3)ccc2F)C[C@@H](C(F)(F)F)OC(N)=N1` [Example 77, 6-(4-(3-((4S,6S)-2-Amino-4-methyl-6-(trifluoromethyl)-5,6-dihydro-4H-1,3-oxazin-4-yl)-4-fluorophenyl)-1H-1,2,3-triazol-1-yl)nicotinonitrile] gave an IC50 of 180 nM. For `N#Cc1cnc(C#Cc2ccc(F)c([C@]3(CF)C[C@@H](C(F)(F)F)OC(N)=N3)c2)c(Cl)c1` [Example 59, 6-((3-((4S,6S)-2-Amino-4-(fluoromethyl)-6-(trifluoromethyl)-5,6-dihydro-4H-1,3-oxazin-4-yl)-4-fluorophenyl)ethynyl)-5-chloronicotinonitrile], the IC50 was 790 nM. `Cc1cc(F)c([C@]2(C)C[C@@H](C(F)(F)F)OC(N)=N2)cc1C#Cc1ncc(C#N)cc1Cl` [Example 69, 6-((5-((4S,6S)-2-Amino-4-methyl-6-(trifluoromethyl)-5,6-dihydro-4H-1,3-oxazin-4-yl)-4-fluoro-2-methylphenyl)ethynyl)-5-chloronicotinonitrile] gave an IC50 of 130 nM. Work on `CC#Cc1cncc(-c2cc([C@]3(C)C[C@@H](C(F)(F)F)OC(N)=N3)c(F)cc2F)c1` [Example 19, (4S,6S)-4-(2,4-Difluoro-5-(5-(prop-1-ynyl)pyridin-3-yl)phenyl)-4-methyl-6-(trifluoromethyl)-5,6-dihydro-4H-1,3-oxazin-2-amine] yielded an IC50 of 570 nM. With `CC#Cc1cncc(-c2ccc(F)c([C@]3(C)C[C@@H](C(F)(F)F)OC(N)=N3)c2)c1` [Example 14, (4S,6S)-4-(2-Fluoro-5-(5-(prop-1-ynyl)pyridin-3-yl)phenyl)-4-methyl-6-(trifluoromethyl)-5,6-dihydro-4H-1,3-oxazin-2-amine] the IC50 was 250 nM. With `C[C@@]1(c2cc(-c3cccc(C(F)(F)F)c3)cs2)C[C@@H](C(F)(F)F)OC(N)=N1` [Example 28, (4S,6S)-4-Methyl-6-(trifluoromethyl)-4-(4-(3-(trifluoromethyl)phenyl)thiophen-2-yl)-5,6-dihydro-4H-1,3-oxazin-2-amine] the IC50 was 330 nM. For `C[C@@]1(c2cc(-c3cncnc3)cs2)C[C@@H](C(F)(F)F)OC(N)=N1` [Example 42, (4S,6S)-4-Methyl-4-(4-(pyrimidin-5-yl)thiophen-2-yl)-6-(trifluoromethyl)-5,6-dihydro-4H-1,3-oxazin-2-amine], the IC50 was 2520 nM. For `N#Cc1ccc(C#Cc2ccc(F)c([C@]3(CF)C[C@@H](C(F)(F)F)OC(N)=N3)c2)nc1` [Example 62, 6-((3-((4S,6S)-2-Amino-4-(fluoromethyl)-6-(trifluoromethyl)-5,6-dihydro-4H-1,3-oxazin-4-yl)-4-fluorophenyl)ethynyl)nicotinonitrile], the IC50 was 400 nM. `C[C@]1(c2cc(NC(=O)c3cnc(C(F)F)cn3)ccc2F)N=C(N)O[C@H](C(F)(F)F)[C@@H]1F` [Example 6, N-(3-((4R,5R,6S)-2-Amino-5-fluoro-4-methyl-6-(trifluoromethyl)-5,6-dihydro-4H-1,3-oxazin-4-yl)-4-fluorophenyl)-5-(difluoromethyl)pyrazine-2-carboxamide] was tested, and the IC50 was 58 nM. With `C[C@@]1(c2c(F)ccc(NC(=O)c3ccc(C#N)cn3)c2F)C[C@@H](C(F)(F)F)OC(N)=N1` [Example 38, N-(3-((4S,6S)-2-amino-4-methyl-6-(trifluoromethyl)-5,6-dihydro-4H-1,3-oxazin-4-yl)-2,4-difluorophenyl)-5-cyanopicolinamide] the IC50 was 13 nM. For `C[C@@]1(c2cc(-c3cnn(C(F)F)c3)ccc2F)C[C@@H](C(F)(F)F)OC(N)=N1` [Example 16, (4S,6S)-4-(5-(1-(Difluoromethyl)-1H-pyrazol-4-yl)-2-fluorophenyl)-4-methyl-6-(trifluoromethyl)-5,6-dihydro-4H-1,3-oxazin-2-amine], the IC50 was 1100 nM. Work on `C[C@@]1(c2sc(-c3cccc(C#N)c3)cc2Cl)C[C@@H](C(F)(F)F)OC(N)=N1` [Example 33, 3-(5-((4S,6S)-2-Amino-4-methyl-6-(trifluoromethyl)-5,6-dihydro-4H-1,3-oxazin-4-yl)-4-chlorothiophen-2-yl)benzonitrile] yielded an IC50 of 510 nM. `C[C@@]1(c2cc(C#Cc3ccc(C#N)cn3)ccc2F)C[C@@H](C(F)(F)F)OC(N)=N1` [Example 21, 6-((3-((4S,6S)-2-Amino-4-methyl-6-(trifluoromethyl)-5,6-dihydro-4H-1,3-oxazin-4-yl)-4-fluorophenyl)ethynyl)nicotinonitrile] gave an IC50 of 59 nM. In the case of `C[C@@]1(c2cc(C#Cc3ccc(Cl)cc3)ccc2F)C[C@@H](C(F)(F)F)OC(N)=N1` [Example 75, (4S,6S)-4-(5-((4-Chlorophenyl)ethynyl)-2-fluorophenyl)-4-methyl-6-(trifluoromethyl)-5,6-dihydro-4H-1,3-oxazin-2-amine], the IC50 is reported as 1430 nM. `C[C@@]1(c2sc(-c3cncc(Cl)c3)cc2Cl)C[C@@H](C(F)(F)F)OC(N)=N1` [Example 32, (4S,6S)-4-(3-Chloro-5-(5-chloropyridin-3-yl)thiophen-2-yl)-4-methyl-6-(trifluoromethyl)-5,6-dihydro-4H-1,3-oxazin-2-amine] was tested, and the IC50 was 740 nM. `C[C@]1(c2cc(NC(=O)c3ccc(C#N)cn3)ccc2F)N=C(N)O[C@H](C(F)(F)F)[C@@H]1F` [Example 2, N-(3-((4R,5R,6S)-2-Amino-5-fluoro-4-methyl-6-(trifluoromethyl)-5,6-dihydro-4H-1,3-oxazin-4-yl)-4-fluorophenyl)-5-cyanopicolinamide] was tested, and the IC50 was 10 nM. Work on `COc1cnc(C(=O)Nc2ccc(F)c([C@@]3(C)N=C(N)O[C@H](C(F)(F)F)[C@@H]3F)c2)cn1` [Example 5, N-(3-((4R,5R,6S)-2-Amino-5-fluoro-4-methyl-6-(trifluoromethyl)-5,6-dihydro-4H-1,3-oxazin-4-yl)-4-fluorophenyl)-5-methoxypyrazine-2-carboxamide] yielded an IC50 of 12 nM. With `C[C@@]1(c2cc(C#Cc3ncc(Cl)cn3)ccc2F)C[C@@H](C(F)(F)F)OC(N)=N1` [Example 23, (4S,6S)-4-(5-((5-Chloropyrimidin-2-yl)ethynyl)-2-fluorophenyl)-4-methyl-6-(trifluoromethyl)-5,6-dihydro-4H-1,3-oxazin-2-amine] the IC50 was 77 nM. `CC#Cc1cncc(-c2cc(Cl)c([C@]3(C)C[C@@H](C(F)(F)F)OC(N)=N3)s2)c1` [Example 30, (4S,6S)-4-(3-Chloro-5-(5-(prop-1-ynyl)pyridin-3-yl)thiophen-2-yl)-4-methyl-6-(trifluoromethyl)-5,6-dihydro-4H-1,3-oxazin-2-amine] was tested, and the IC50 was 620 nM. In the case of `C[C@@]1(c2cc(-c3ccccc3)ccc2F)C[C@@H](C(F)(F)F)OC(N)=N1` [Example 41, (4S,6S)-4-(4-Fluorobiphenyl-3-yl)-4-methyl-6-(trifluoromethyl)-5,6-dihydro-4H-1,3-oxazin-2-amine], the IC50 is reported as 6420 nM. Compound `CC#CCOc1cnc(C(=O)Nc2ccc(F)c([C@@]3(C)N=C(N)O[C@H](C(F)(F)F)[C@@H]3F)c2)cn1` [Example 7, N-(3-((4R,5R,6S)-2-Amino-5-fluoro-4-methyl-6-(trifluoromethyl)-5,6-dihydro-4H-1,3-oxazin-4-yl)-4-fluorophenyl)-5-(but-2-ynyloxy)pyrazine-2-carboxamide] has an IC50 of 2 nM. `Cc1cc(-c2cncc(-c3ccc(F)c([C@]4(CF)C[C@@H](C(F)(F)F)OC(N)=N4)c3)c2)n[nH]1` [Example 47, (4S,6S)-4-(2-fluoro-5-(5-(5-methyl-1H-pyrazol-3-yl)pyridin-3-yl)phenyl)-4-(fluoromethyl)-6-(trifluoromethyl)-5,6-dihydro-4H-1,3-oxazin-2-amine] was tested, and the IC50 was 10600 nM. In the case of `C[C@@]1(c2cc(C#Cc3cncnc3)ccc2F)C[C@@H](C(F)(F)F)OC(N)=N1` [Example 50, (4S,6S)-4-(2-fluoro-5-(pyrimidin-5-ylethynyl)phenyl)-4-methyl-6-(trifluoromethyl)-5,6-dihydro-4H-1,3-oxazin-2-amine], the IC50 is reported as 2660 nM. Compound `C[C@@]1(c2sc(-c3cncc(C#N)c3)cc2Cl)C[C@@H](C(F)(F)F)OC(N)=N1` [Example 31, 5-(5-((4S,6S)-2-Amino-4-methyl-6-(trifluoromethyl)-5,6-dihydro-4H-1,3-oxazin-4-yl)-4-chlorothiophen-2-yl)nicotinonitrile] has an IC50 of 340 nM.
